The target in data set [1] is T1, Class 1 phosphodiesterase PDEB1 (Trypanosoma brucei) (UniProt Q8WQX9).
T1 sequence (whole entry): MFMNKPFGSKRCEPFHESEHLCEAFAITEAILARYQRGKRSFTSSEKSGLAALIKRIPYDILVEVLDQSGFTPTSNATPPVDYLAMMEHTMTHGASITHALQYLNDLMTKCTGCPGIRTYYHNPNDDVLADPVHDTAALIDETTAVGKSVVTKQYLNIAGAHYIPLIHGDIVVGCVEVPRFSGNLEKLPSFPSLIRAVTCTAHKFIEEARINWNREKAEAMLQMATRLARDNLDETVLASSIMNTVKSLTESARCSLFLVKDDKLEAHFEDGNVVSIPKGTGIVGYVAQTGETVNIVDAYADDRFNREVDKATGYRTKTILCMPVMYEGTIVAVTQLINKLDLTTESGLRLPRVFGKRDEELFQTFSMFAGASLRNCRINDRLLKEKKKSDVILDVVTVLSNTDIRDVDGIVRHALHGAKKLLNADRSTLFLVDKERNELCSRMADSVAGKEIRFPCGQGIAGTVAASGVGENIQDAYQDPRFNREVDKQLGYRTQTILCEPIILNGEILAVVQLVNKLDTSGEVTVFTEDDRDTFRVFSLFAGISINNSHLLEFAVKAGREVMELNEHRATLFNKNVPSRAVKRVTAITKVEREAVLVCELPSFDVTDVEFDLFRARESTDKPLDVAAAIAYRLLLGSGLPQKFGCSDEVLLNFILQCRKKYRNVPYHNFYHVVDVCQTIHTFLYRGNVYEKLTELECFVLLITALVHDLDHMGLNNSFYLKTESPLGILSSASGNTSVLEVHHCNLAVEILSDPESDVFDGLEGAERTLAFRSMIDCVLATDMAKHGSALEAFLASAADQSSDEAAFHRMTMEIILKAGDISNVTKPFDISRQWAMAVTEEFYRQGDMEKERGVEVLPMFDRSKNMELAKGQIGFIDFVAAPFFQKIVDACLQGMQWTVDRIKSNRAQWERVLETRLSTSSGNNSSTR
Kind of data set: Inhibition of Trypanosoma brucei PDEB1 using cAMP as substrate at 10 uM preincubated for 10 mins prior substrate addition by spectrophotometry.

Data set [2] can be described thus: Solubility of the compound at higher concentration. The class given is physicochemical.
The target in data set [3] is T1, Class 1 phosphodiesterase PDEB1 (Trypanosoma brucei). Briefly: Inhibition of Trypanosoma brucei PDEB1 using cAMP as substrate at 100 uM preincubated for 10 mins prior substrate addition by spectrophotometry.

The structures appear in SMILES notation.

On to `CN1CC(=O)N2[C@@H](c3ccc4c(c3)OCO4)c3[nH]c4ccc(-c5ccn[nH]5)cc4c3C[C@@H]2C1=O`, for which the inhibition (in general, the percentage by which the read-out fell short of the control) in data set [1] worked out at 71.8%. Besides, in data set [2], the solubility result is “Insoluble”. Turning to `CN1CC(=O)N2[C@H](c3ccc4c(c3)OCO4)c3[nH]c4ccc(Br)cc4c3C[C@@H]2C1=O`, the inhibition in data set [1] is 11.8%.

As for `CN1CC(=O)N2C(c3cccnc3)c3[nH]c4ccccc4c3C[C@@H]2C1=O` (stereo partly drawn), the inhibition in data set [3] is 9.4%. On to `Cc1n[nH]cc1C(=O)NCC1c2[nH]c3ccccc3c2C[C@@H]2C(=O)N(C)CC(=O)N12` (stereo partly drawn), for which the inhibition in data set [1] was found to be 0%.

`CN1CC(=O)N2C(CNC(=O)OCc3ccccc3)c3[nH]c4ccccc4c3C[C@@H]2C1=O` (stereo partly drawn) returned an inhibition in data set [1] of 21.2%. In the case of `CN1CC(=O)N2[C@@H](c3ccc4c(c3)OCO4)c3[nH]c4ccc(Br)cc4c3C[C@@H]2C1=O`, the inhibition in data set [1] is 11.6%. In data set [3], `CC(=O)N1CCc2c([nH]c3ccccc23)C1c1ccc2c(c1)OCO2` (stereo not drawn) gave an inhibition of 17%. Compound `CN1CC(=O)N2C(CNCc3cccnc3)c3[nH]c4ccccc4c3C[C@@H]2C1=O` (stereo partly drawn) showed an inhibition in data set [1] of 6.09%. Consider `CC(=O)NCC1c2[nH]c3ccccc3c2C[C@@H]2C(=O)N(C)CC(=O)N12` (stereo partly drawn), for which, in data set [1], the inhibition was 0%. The compound `NC(=O)[C@H]1Cc2c([nH]c3ccccc23)[C@H](c2ccc3c(c2)OCO3)N1` came in with an inhibition in data set [3] of 0%.

In the case of `CN1CC(=O)N2[C@@H](c3ccc4c(c3)OCO4)c3[nH]c4ccccc4c3C[C@@H]2C1=O`, the inhibition in data set [1] came out at 38.8%. Take `CC1NC(C(N)=O)Cc2c1[nH]c1ccccc21` (stereo not drawn): the inhibition in data set [3] was 13.3%.

Compound `CN1CC(=O)N2[C@H](c3ccc4c(c3)OCO4)c3[nH]c4ccccc4c3C[C@@H]2C1=O` registered an inhibition in data set [3] of 0%. Regarding `CN1CC(=O)N2[C@@H](c3ccc4c(c3)OCO4)c3c(c4ccccc4n3C)C[C@@H]2C1=O`, in data set [1], the inhibition was found to be 19.7%. The compound `CN1CC(=O)N2[C@H](c3ccc4c(c3)OCO4)c3c(c4ccccc4n3C)C[C@@H]2C1=O` came in with an inhibition in data set [1] of 6.9%. `NC(=O)[C@H]1Cc2c([nH]c3ccccc23)[C@@H](c2ccc3c(c2)OCO3)N1`: the inhibition in data set [3] worked out at 19.5%.

`NC(=O)[C@H]1Cc2c([nH]c3ccccc23)C(c2cccnc2)N1` (stereo partly drawn) had an inhibition in data set [1] of 22.6%.

The values are drawn from ChEMBL document CHEMBL2010777, “Synthesis and evaluation of human phosphodiesterases (PDE) 5 inhibitor analogs as trypanosomal PDE inhibitors. Part 2. Tadalafil analogs” (Bioorg Med Chem Lett, 2012).
